# Assay results: patent US9414590B2, “Chemical and biological agents for the control of molluscs” (priority 2009, dated 2016)
# Read-outs that look alike come from different tables or passages of the source.
# Legend:
# quagga mussels [1] = assay: Mussel bioassay test (live mussel jar-test); format: in vivo, Dreissena bugensis; conditions: Dreissena rostriformis, 16 μg/ml
# Protocol: Twenty freshly collected quagga mussels is placed in a jar containing 250 mL of de-chlorinated tap water at room temperature. Jars are kept at room temperature and connected into a manifold providing constant air supply through bubbling. Each test subject (HPLC fraction or peak) dissolved in DMSO is pipetted into jars separately at a concentration of 1-5 mg, and the mussels are incubated with the test subject for 24 hours. After the incubation period, water in each jar is discarded, and the mussels are rinsed with fresh water and transferred into open glass petri dishes for a 10-day observation period. Mussels are checked daily for mortality, and the dead mussels are removed and discarded. Each treatment is carried out in three replicates, and in the end of the 10-day incubation period, % mortality is calculated for each treatment.
# The potency of compounds isolated from Pseudomonas cell culture is tested using procedures described above.
# CL145A (ATCC 55799) = assay: Antibiotic resistance profile, discs on Mueller-Hinton Agar; format: cell-based, Pseudomonas protegens strain CL145A; conditions: for CL145A resistant or sensitive to the antibiotic: antibiotic disc, 72 hours incubation; for Suppresses growth of CL145A: 25° C., 72 hours
# Protocol: One glycerol stock vial of CL145A was equally distributed onto Mueller-Hinton Agar plates (100 μl per plate) and spread on the plate using a sterile cell spreader. Antibiotic discs were then placed onto the plates along with a blank sterile disc. Plates were incubated at 25° C. in the dark for 72 hours.
# quagga mussels [2] = assay: whole plant or invertebrate; conditions: Dreissena rostriformis
# [3] = tested on: Brown garden snails (Cantareus aspersus); assay: Snail experiments: chemical-containing corn starch; format: in vivo; conditions: 100 mg/gram corn starch; for Consumed amount of corn starch: after 24 hr
# Protocol: An appropriate amount of a testing compound is dissolved in acetone (2 mL) first. The solution was added into 2.5 gram of corn starch and mixed well. The resulting mixture is transferred to a Petri dish (Φ 25 mm). The Petri dish is then put in the hood for natural dry. After drying, water (2 mL) is added into the Petri dish to make paste.
# Brown garden snails (Cantareus aspersus) are collected from a house garden and raised at least 1 day in lab with cabbage or red carrot. Five individuals with a similar size are chosen for each treatment and transferred into a 1 L beaker. To make the snail active, some water is sprayed on them and in the beaker by using hand-sprayer. After spraying water, the Petri dish with chemical-containing corn starch is placed into the beaker the beaker is covered on the top with aluminum foil. Eating behavior, consumed amount of corn starch and mortality at 24 hr is recorded.
# [4] = 24 hr, read-out: % mortality 24 hr
# [5] = 48 hr, read-out: % mortality 48 hr
# [6] = 72 hr, read-out: % mortality 72 hr
# [7] = 96 hr, read-out: % mortality 96 hr
# [8] = 24 h, read-out: Molluscicidal effect (mortality) 24 hr
# [9] = 48 h, read-out: Molluscicidal effect (mortality) 48 hr
# [10] = 72 h, read-out: Molluscicidal effect (mortality) 72 hr
# [11] = 96 h, read-out: Molluscicidal effect (mortality) 96 hr
# [12] = 24 h, read-out: Potency toward quagga mussels (mortality) 24 hr
# [13] = 48 h, read-out: Potency toward quagga mussels (mortality) 48 hr
# [14] = 72 h, read-out: Potency toward quagga mussels (mortality) 72 hr
# [15] = 96 h, read-out: Potency toward quagga mussels (mortality) 96 hr
compound,measurement,setting,value
CCCCC/C=C/C(O)CCCCCCCCCC(=O)O (stereo not drawn) [11-Hydroxy-12-ene-octadecanoic acid],mortality at 16 µg/mL,quagga mussels [1]; [4],0%
same,mortality at 16 µg/mL,quagga mussels [1]; [5],20 ± 20%
same,mortality at 16 µg/mL,quagga mussels [1]; [6],33.3 ± 20.8%
same,mortality at 16 µg/mL,quagga mussels [1]; [7],40 ± 26.5%
CC1(C)S[C@@H]2[C@H](NC(=O)[C@H](N)c3ccccc3)C(=O)N2[C@H]1C(=O)O [Ampicillin],CL145A resistant or sensitive to the antibiotic,CL145A (ATCC 55799),resistant
same,Suppresses growth of CL145A,CL145A (ATCC 55799); disc 10 μg,No
CO/N=C(\C(=O)N[C@@H]1C(=O)N2C(C(=O)O)=C(COC(N)=O)CS[C@H]12)c1ccco1 [Cefuroxime],CL145A resistant or sensitive to the antibiotic,CL145A (ATCC 55799),resistant
same,Suppresses growth of CL145A,CL145A (ATCC 55799); disc 30 μg,No
O=C(N[C@H](CO)[C@H](O)c1ccc([N+](=O)[O-])cc1)C(Cl)Cl [Chloramphenicol],CL145A resistant or sensitive to the antibiotic,CL145A (ATCC 55799),resistant
same,Suppresses growth of CL145A,CL145A (ATCC 55799); disc 30 μg,No
CC[C@H]1OC(=O)[C@H](C)[C@@H](O[C@H]2C[C@@](C)(OC)[C@@H](O)[C@H](C)O2)[C@H](C)[C@@H](O[C@@H]2O[C@H](C)C[C@H](N(C)C)[C@H]2O)[C@](C)(O)C[C@@H](C)C(=O)[C@H](C)[C@@H](O)[C@]1(C)O [Erythromycin],CL145A resistant or sensitive to the antibiotic,CL145A (ATCC 55799),resistant
same,Suppresses growth of CL145A,CL145A (ATCC 55799); disc 15 μg,No
CCCCC/C=C/C(O)CCCCCCC1CCC(=O)O1 (stereo not drawn) [Piliferolide A],mortality at 16 µg/mL,quagga mussels [1]; [4],53.3 ± 15.3%
same,mortality at 16 µg/mL,quagga mussels [1]; [5],53.3 ± 15.3%
same,mortality at 16 µg/mL,quagga mussels [1]; [6],70 ± 10%
same,mortality at 16 µg/mL,quagga mussels [1]; [7],80 ± 10%
CCN1CCN(C(=O)N[C@@H](C(=O)N[C@@H]2C(=O)N3[C@@H]2SC(C)(C)[C@@H]3C(=O)O)c2ccccc2)C(=O)C1=O [Piperacillin],CL145A resistant or sensitive to the antibiotic,CL145A (ATCC 55799),sensitive
same,Suppresses growth of CL145A,CL145A (ATCC 55799); disc 100 μg,Yes
CCCCCCCCC1CCC(=O)O1 (stereo not drawn) [SAR-001],mortality at 11.1 µg/mL,quagga mussels [2]; [8],86.7 ± 5.8%
same,mortality at 11.1 µg/mL,quagga mussels [2]; [9],96.7 ± 5.8%
same,mortality at 11.1 µg/mL,quagga mussels [2]; [10],96.7 ± 5.8%
same,mortality at 11.1 µg/mL,quagga mussels [2]; [11],96.7 ± 5.8%
CCCCCCCC1CCOC1=O (stereo not drawn) [SAR-002],mortality at 11.1 µg/mL,quagga mussels [2]; [8],30 ± 10%
same,mortality at 11.1 µg/mL,quagga mussels [2]; [9],66.7 ± 15.3%
same,mortality at 11.1 µg/mL,quagga mussels [2]; [10],73.3 ± 11.5%
same,mortality at 11.1 µg/mL,quagga mussels [2]; [11],76.7 ± 15.3%
CCCCCCCCC1CCCC(=O)O1 (stereo not drawn) [SAR-003],mortality at 11.1 µg/mL,quagga mussels [2]; [8],3.3 ± 5.7%
same,mortality at 11.1 µg/mL,quagga mussels [2]; [9],10 ± 10%
same,mortality at 11.1 µg/mL,quagga mussels [2]; [10],10 ± 10%
same,mortality at 11.1 µg/mL,quagga mussels [2]; [11],10 ± 10%
CCCCCCCCCC1CCCC(=O)O1 (stereo not drawn) [SAR-004],mortality at 11.1 µg/mL,quagga mussels [2]; [8],0%
same,mortality at 11.1 µg/mL,quagga mussels [2]; [9],0%
same,mortality at 11.1 µg/mL,quagga mussels [2]; [10],0%
same,mortality at 11.1 µg/mL,quagga mussels [2]; [11],0%
CCCCCCCCCCCC(=O)O [SAR-005],mortality at 11.1 µg/mL,quagga mussels [2]; [8],0%
same,mortality at 11.1 µg/mL,quagga mussels [2]; [9],0%
same,mortality at 11.1 µg/mL,quagga mussels [2]; [10],0%
same,mortality at 11.1 µg/mL,quagga mussels [2]; [11],0%
CCCCCCCCC(O)CCC(=O)O (stereo not drawn) [SAR-006],mortality at 11.1 µg/mL,quagga mussels [2]; [8],0%
same,mortality at 11.1 µg/mL,quagga mussels [2]; [9],0%
same,mortality at 11.1 µg/mL,quagga mussels [2]; [10],0%
same,mortality at 11.1 µg/mL,quagga mussels [2]; [11],0%
"CCCCCCCCCC(=O)N1CCCC1 [SAR-007, N-(Decanoyl)pyrrolidine]",mortality at 11.1 µg/mL,quagga mussels [2]; [12],35 ± 7%
same,mortality at 11.1 µg/mL,quagga mussels [2]; [13],50 ± 14%
same,mortality at 11.1 µg/mL,quagga mussels [2]; [14],55 ± 21%
same,mortality at 11.1 µg/mL,quagga mussels [2]; [15],65 ± 21%
CCCCCC1CCC(=O)O1 (stereo not drawn) [SAR-008],mortality at 11.1 µg/mL,quagga mussels [2]; [8],0%
same,mortality at 11.1 µg/mL,quagga mussels [2]; [9],0%
same,mortality at 11.1 µg/mL,quagga mussels [2]; [10],0%
same,mortality at 11.1 µg/mL,quagga mussels [2]; [11],0%
CCCC1CCC(=O)O1 (stereo not drawn) [SAR-011],mortality at 11.1 µg/mL,quagga mussels [2]; [8],0%
same,mortality at 11.1 µg/mL,quagga mussels [2]; [9],0%
same,mortality at 11.1 µg/mL,quagga mussels [2]; [10],0%
same,mortality at 11.1 µg/mL,quagga mussels [2]; [11],0%
O=C1CCC(c2ccccc2)O1 (stereo not drawn) [SAR-013],mortality at 11.1 µg/mL,quagga mussels [2]; [8],0%
same,mortality at 11.1 µg/mL,quagga mussels [2]; [9],0%
same,mortality at 11.1 µg/mL,quagga mussels [2]; [10],0%
same,mortality at 11.1 µg/mL,quagga mussels [2]; [11],0%
CCCCCCC1CCC(=O)O1 (stereo not drawn) [SAR-014],Effect on brown garden snails,[3],strongly repel brown garden snails
same,24 hr mortality,[3]; 24 hr,0%
same,Consumed amount of corn starch,[3],0% after
same,mortality at 11.1 µg/mL,quagga mussels [2]; [8],0%
same,mortality at 11.1 µg/mL,quagga mussels [2]; [9],0%
same,mortality at 11.1 µg/mL,quagga mussels [2]; [10],0%
same,mortality at 11.1 µg/mL,quagga mussels [2]; [11],0%
"CCCCCCCCCC(=O)NC1CCCC1 [SAR-020, N-Cyclopentyldecanamide]",mortality at 11.1 µg/mL,quagga mussels [2]; [12],75 ± 7%
same,mortality at 11.1 µg/mL,quagga mussels [2]; [13],75 ± 7%
same,mortality at 11.1 µg/mL,quagga mussels [2]; [14],75 ± 7%
same,mortality at 11.1 µg/mL,quagga mussels [2]; [15],75 ± 7%
"CCCCCCCCCC(=O)N1CCCCC1 [SAR-021, N-(Decanoyl)piperidine]",mortality at 11.1 µg/mL,quagga mussels [2]; [12],55 ± 21%
same,mortality at 11.1 µg/mL,quagga mussels [2]; [13],55 ± 21%
same,mortality at 11.1 µg/mL,quagga mussels [2]; [14],60 ± 14%
same,mortality at 11.1 µg/mL,quagga mussels [2]; [15],65 ± 7%
"CCCCCCCCCC(=O)N1CCCCCC1 [SAR-022, N-(Decanoyl)hexamethyleneimine]",mortality at 11.1 µg/mL,quagga mussels [2]; [12],35 ± 7%
same,mortality at 11.1 µg/mL,quagga mussels [2]; [13],40 ± 14%
same,mortality at 11.1 µg/mL,quagga mussels [2]; [14],40 ± 14%
same,mortality at 11.1 µg/mL,quagga mussels [2]; [15],45 ± 21%
"O=C(/C=C/c1ccccc1)NC1CCCC1 [SAR-023, N-Cyclopentylcinnamamide]",mortality at 11.1 µg/mL,quagga mussels [2]; [12],0%
same,mortality at 11.1 µg/mL,quagga mussels [2]; [13],0%
same,mortality at 11.1 µg/mL,quagga mussels [2]; [14],0%
same,mortality at 11.1 µg/mL,quagga mussels [2]; [15],0%
"O=C(/C=C/c1ccccc1)N1CCCC1 [SAR-024, N-(trans-Cinnamoyl)pyrrolidine]",mortality at 11.1 µg/mL,quagga mussels [2]; [12],0%
same,mortality at 11.1 µg/mL,quagga mussels [2]; [13],0%
same,mortality at 11.1 µg/mL,quagga mussels [2]; [14],0%
same,mortality at 11.1 µg/mL,quagga mussels [2]; [15],0%
"O=C(/C=C/c1ccccc1)N1CCCCC1 [SAR-025, N-(trans-Cinnamoyl)piperidine]",mortality at 11.1 µg/mL,quagga mussels [2]; [12],0%
same,mortality at 11.1 µg/mL,quagga mussels [2]; [13],0%
same,mortality at 11.1 µg/mL,quagga mussels [2]; [14],0%
same,mortality at 11.1 µg/mL,quagga mussels [2]; [15],0%
"O=C(/C=C/c1ccccc1)N1CCCCCC1 [SAR-026, N-(trans-Cinnamoyl) hexamethyleneimine]",mortality at 11.1 µg/mL,quagga mussels [2]; [12],0%
same,mortality at 11.1 µg/mL,quagga mussels [2]; [13],0%
same,mortality at 11.1 µg/mL,quagga mussels [2]; [14],0%
same,mortality at 11.1 µg/mL,quagga mussels [2]; [15],0%
"CCCCCCC/C=C/C(=O)NC1CCCC1 [SAR-027, N-Cyclopentyldecenamide]",mortality at 11.1 µg/mL,quagga mussels [2]; [12],85 ± 7%
same,mortality at 11.1 µg/mL,quagga mussels [2]; [13],95 ± 7%
same,mortality at 11.1 µg/mL,quagga mussels [2]; [14],95 ± 7%
same,mortality at 11.1 µg/mL,quagga mussels [2]; [15],95 ± 7%
"CCCCCCCC=CC(=O)N1CCCC1 [SAR-030, N-(Decenoyl)pyrrolidine]",Effect on brown garden snails,[3],kill all brown garden snails after they ate
same,Consumed amount of corn starch,[3],Less than 5%
[H]/N=C(/N)N[C@H]1[C@H](O)[C@@H](O)[C@H](O[C@@H]2O[C@@H](C)[C@](O)(C=O)[C@H]2O[C@@H]2O[C@@H](CO)[C@H](O)[C@@H](O)[C@@H]2NC)[C@@H](N/C(N)=N\[H])[C@@H]1O [Streptomycin],CL145A resistant or sensitive to the antibiotic,CL145A (ATCC 55799),resistant
same,Suppresses growth of CL145A,CL145A (ATCC 55799); disc 10 μg,No
Gentamicin,CL145A resistant or sensitive to the antibiotic,CL145A (ATCC 55799),sensitive
same,Suppresses growth of CL145A,CL145A (ATCC 55799); disc 10 μg,Yes
Penicillin,CL145A resistant or sensitive to the antibiotic,CL145A (ATCC 55799),resistant
same,Suppresses growth of CL145A,CL145A (ATCC 55799); disc 10 μg,No
